Test results reported in US8557842B2 (priority 2010, dated 2013).
Entries after “also recorded” stand apart in the source; their conditions may differ. Like-named read-outs stand apart in the source and are kept apart here.

Legend:
[1] = Brain uptake: brain and plasma levels by mass spectrometry; settings: for concentration at 5 min / concentration at 30 min: male, CD-1, mouse, intraperitoneal, 30 mg/kg
Method: Data shown are mean±SEM (vertical bar).
Brain and plasma levels of 11 were determined by mass spectrometry.

adult male C57BL/6 mice = assay: Forced swim test model of antidepressant-like activity; format: in vivo; settings: vs saline
Method: Data are mean ±SEM (vertical bar). ***P<0.001, n=7-9 (One-way ANOVA and Bonferroni post-hoc tests).
The Forced Swim Test (FST) is a rodent model often used to evaluate the anti-depressive effect of therapeutics. Rats swim under conditions in which escape is not possible. On the first day, rats are forced to swim for 15 minutes. The animals are observed to initially struggle to escape from the water. They then adopt a posture of immobility making only movements necessary to keep their heads above water. The rats are retested 24 hours later. The immobility increases. Treatment with standard antidepressant drugs within the 24 hours between the first exposure to forced swimming and retesting can block facilitated immobility, an effect which is associated with antidepressant efficacy in humans. See Porsolt et al, (1977) Nature 266:730-732; Detke et al. (1995) Psychopharmacology 121:66-72.
Antidepressant-like activity of compound 11 was tested in the forced swim test model as previously described (Porsolt et al., supra; Castagne et al. (2011) Curr Protoc Neurosci 55: Unit 8.10A). Briefly, adult male C57BL/6 mice (N=7-9/group) were placed into individual glass cylinders containing clean 25° C. (±1° C.) water, 15 cm deep for 15 minutes. Mice were removed, dried and returned to their home cages. A second 6-minute swim test was given 24 hours after the first. Saline (3 ml/kg, i.p.), Compound 11 (30 mg/kg, i.p.) or desipramine (10 mg/kg, i.p.; a well-known antidepressant, used as a positive control) were administered […], 5 hours, and 1 hour before the second swim test (i.e., 30 minutes, 19 hours and 23 hours after the first swim). Test sessions were video recorded. Behavior during the 6-minute swim test was scored from the videotapes. The cumulative amount of time that the mouse was immobile in the water during the last 4 minutes of the test was measured, as was the latency for the mouse to show the first bout of immobility behavior. Immobility was defined as the mouse performing no movements except those necessary to keep the head above the water (e.g., no swimming or climbing behaviors). […] Immobility scores were analyzed by a one-way ANOVA, followed by the Bonferroni post-hoc analysis.

Male C57BL/6 mice = assay: Locomotor ambulatory activity; format: in vivo
Text: Many, but not all, psychostimulants with potent action at DAT, also stimulate locomotor ambulatory activity in rodents. […] Male C57BL/6 mice were contained in a box equipped with infrared beams, the consecutive interruption of which by horizontal activity by the mouse provided a measure for ambulation.

human SERT = molecular target: T1, human SERT (Homo sapiens, UniProt P31645); assay: cell-based
T1 construct: expressed in transfected cells; cells as described by Eshleman et al., J. Pharmacol. Exp. Ther. 1995, 274:276-283
T1 sequence (P31645 whole entry): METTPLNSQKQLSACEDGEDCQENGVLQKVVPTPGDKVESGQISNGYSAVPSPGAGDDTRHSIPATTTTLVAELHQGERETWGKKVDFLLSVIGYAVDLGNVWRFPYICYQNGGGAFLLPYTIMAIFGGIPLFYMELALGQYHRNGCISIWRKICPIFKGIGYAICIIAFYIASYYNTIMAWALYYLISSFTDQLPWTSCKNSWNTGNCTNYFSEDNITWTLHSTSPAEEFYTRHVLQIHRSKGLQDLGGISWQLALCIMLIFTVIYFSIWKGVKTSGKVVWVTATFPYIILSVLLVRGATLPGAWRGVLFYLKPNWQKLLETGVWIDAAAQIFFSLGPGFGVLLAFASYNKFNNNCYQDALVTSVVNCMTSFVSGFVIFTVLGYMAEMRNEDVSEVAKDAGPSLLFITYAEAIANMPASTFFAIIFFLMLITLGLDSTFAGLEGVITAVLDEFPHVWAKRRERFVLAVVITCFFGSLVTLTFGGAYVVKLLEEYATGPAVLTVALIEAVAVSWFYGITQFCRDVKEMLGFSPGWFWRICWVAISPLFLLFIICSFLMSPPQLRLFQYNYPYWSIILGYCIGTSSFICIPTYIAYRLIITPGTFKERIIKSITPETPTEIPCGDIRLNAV

human NET = molecular target: T2, human NET (Homo sapiens, UniProt P23975); assay: cell-based
T2 construct: expressed in transfected cells; cells as described by Reith et al., J. Neurosci
T2 sequence (P23975 whole entry): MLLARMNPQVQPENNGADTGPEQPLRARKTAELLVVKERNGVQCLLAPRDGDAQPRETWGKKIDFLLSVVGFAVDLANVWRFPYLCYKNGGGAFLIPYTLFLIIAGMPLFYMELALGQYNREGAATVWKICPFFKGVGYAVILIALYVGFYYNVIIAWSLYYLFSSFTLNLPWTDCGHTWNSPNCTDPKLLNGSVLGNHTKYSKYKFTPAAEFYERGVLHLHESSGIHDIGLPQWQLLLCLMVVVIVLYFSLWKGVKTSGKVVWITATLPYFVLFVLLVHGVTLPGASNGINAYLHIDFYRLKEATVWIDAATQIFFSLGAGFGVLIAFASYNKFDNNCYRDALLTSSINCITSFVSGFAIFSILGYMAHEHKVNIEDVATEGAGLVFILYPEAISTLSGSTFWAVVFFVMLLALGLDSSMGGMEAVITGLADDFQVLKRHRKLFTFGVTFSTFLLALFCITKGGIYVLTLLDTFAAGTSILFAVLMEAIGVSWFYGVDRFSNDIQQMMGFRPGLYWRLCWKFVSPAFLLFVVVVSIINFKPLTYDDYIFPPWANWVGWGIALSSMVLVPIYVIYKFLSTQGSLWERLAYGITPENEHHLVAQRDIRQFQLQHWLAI

human DAT = molecular target: T3, human DAT (Homo sapiens, UniProt Q01959); assay: Inhibition of [3H]DA uptake in cells expressing cloned human DAT; format: cell-based
T3 construct: expressed in transfected cells; cells as described by Chen et al., J. Neurochem; 2004, 89:853-864
T3 sequence (Q01959 whole entry): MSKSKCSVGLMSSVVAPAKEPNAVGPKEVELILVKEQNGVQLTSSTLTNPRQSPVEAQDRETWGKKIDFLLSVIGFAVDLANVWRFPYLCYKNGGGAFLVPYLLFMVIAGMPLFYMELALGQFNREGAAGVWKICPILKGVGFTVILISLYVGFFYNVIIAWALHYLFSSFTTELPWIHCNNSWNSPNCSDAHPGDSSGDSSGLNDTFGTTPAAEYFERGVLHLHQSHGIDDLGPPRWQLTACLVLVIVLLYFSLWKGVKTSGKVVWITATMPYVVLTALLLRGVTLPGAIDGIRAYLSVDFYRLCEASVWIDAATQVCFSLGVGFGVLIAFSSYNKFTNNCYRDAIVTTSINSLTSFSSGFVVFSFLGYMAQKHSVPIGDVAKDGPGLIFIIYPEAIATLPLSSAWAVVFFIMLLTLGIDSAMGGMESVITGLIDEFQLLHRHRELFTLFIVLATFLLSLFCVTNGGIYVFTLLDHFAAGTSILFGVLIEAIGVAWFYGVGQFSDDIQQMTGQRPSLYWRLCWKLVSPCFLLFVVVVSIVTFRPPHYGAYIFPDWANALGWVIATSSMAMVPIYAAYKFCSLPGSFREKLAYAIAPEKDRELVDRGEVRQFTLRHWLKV

[2] = 25 mg/kg i.p., reported levels, cited from earlier work
[3] = tested at 10 mg/kg and 30 mg/kg

Row | Compound | Ki (human SERT) [nM] | Ki (human NET) [nM] | Ki (human DAT) [nM] | Locomotor stimulation (Male C57BL/6 mice; [3]) | also measured
1 | COC(=O)C1[C@@H](OC(=O)c2ccccc2)CC2CCC1(C)N2C (stereo partly drawn) [Compound 11, Methyl (1R,2R,3S,5S)-(−)-3-(benzoyloxy)-1,8-dimethyl-8-azabicyclo[3.2.I]octane-2-carboxylate] | 435 ± 77 | 488 ± 101 | 168 ± 23 |  | concentration at 5 min ([1]; brain): 8600 ± 700 ng/mL; concentration at 30 min ([1]; brain): 3800 ± 200 ng/mL; concentration at 5 min ([1]; plasma): 3300 ± 200 ng/mL; concentration at 30 min ([1]; plasma): 1700 ± 300 ng/mL; Brain penetration ([1]; pharmacokinetic assay, compared with cocaine): occupies the brain as readily as cocaine; Immobility time (adult male C57BL/6 mice; 30 mg/kg i.p., last 4 minutes of the 6-minute swim test): decreased immobility time; also recorded: as effective as the antidepressant desipramine in reducing immobility time; Latency to first episode of immobility (adult male C57BL/6 mice; 30 mg/kg i.p.): increased latency to first episode of immobility; also recorded: significantly increased over saline; Locomotor stimulation (Male C57BL/6 mice; 30 mg/kg intraperitoneally): did not stimulate locomotion to levels above those seen with 10 mg/kg of cocaine
2 | CCC[C@@]12CC[C@@H](C[C@H](OC(=O)c3ccccc3)[C@@H]1C(=O)OC)N2C [Compound 11a, Methyl (1R,2R,3S,5S)-(−)-1-propyl-3-(benzoyloxy)-8-methyl-8-azabicyclo[3.2.1]octane-2-carboxylate] | 2990 | 796 ± 195 | 871 ± 205 | locomotor activities below those observed with 10 mg/kg of cocaine | 
3 | CC[C@@]12CC[C@@H](C[C@H](OC(=O)c3ccccc3)[C@@H]1C(=O)OC)N2C [Compound 11b, Methyl (1R,2R,3S,5S)-(−)-1-ethyl-3-(benzoyloxy)-8-methyl-8-azabicyclo[3.2.1]octane-2-carboxylate] | 1110 | 598 ± 179 | 95.1 ± 17 | locomotor activities below those observed with 10 mg/kg of cocaine | 
4 | CCCCC[C@@]12CC[C@@H](C[C@H](OC(=O)c3ccccc3)[C@@H]1C(=O)OC)N2C [Compound 11c, Methyl (1R,2R,3S,5S)-(+)-1-pentyl-3-(benzoyloxy)-8-methyl-8-azabicyclo[3.2.1]octane-2-carboxylate] | 1890 | 1600 ± 21 | 1270 | locomotor activities below those observed with 10 mg/kg of cocaine | 
5 | COC(=O)[C@H]1[C@@H](OC(=O)c2ccccc2)C[C@@H]2CC[C@@]1(c1ccccc1)N2C [Compound 11d, Methyl (1R,2R,3S,5S)-(−)-3-(benzoyloxy)-1-phenyl-8-methyl-8-azabicyclo[3.2.1]octane-2-carboxylate] | 974 ± 308 | 1980 | 31.9 ± 5.7 | locomotor activities below those observed with 10 mg/kg of cocaine | Potency at blocking DAT relative to cocaine (human DAT; versus cocaine): ten-fold more potent than cocaine
6 | COC(=O)[C@H]1[C@@H](OC(=O)c2ccccc2)C[C@@H]2CC[C@H]1N2C [cocaine, methyl-(1R,2R,3S,5S)-3-(benzoyloxy)-8-methyl-8-azabicyclo[3.2.1]octane-2-carboxylate] |  |  |  |  | Brain level ([2]; 5 minutes): 6700 ± 1200 ng/mL; Plasma level ([2]; 5 minutes): 1100 ± 100 ng/mL; Brain level ([2]; 30 minutes): 2300 ± 300 ng/mL; Plasma level ([2]; 30 minutes): 400 ± 50 ng/mL; Locomotor stimulation (Male C57BL/6 mice; 10 mg/kg intraperitoneally): slight elevation above saline; Locomotor stimulation (Male C57BL/6 mice; 30 mg/kg intraperitoneally): pronounced increase
7 | CNCCCN1c2ccccc2CCc2ccccc21 [desipramine, reference compound] |  |  |  |  | Immobility time (adult male C57BL/6 mice; 10 mg/kg i.p.): decreased immobility time; Latency to first episode of immobility (adult male C57BL/6 mice; 10 mg/kg i.p.): increased latency to first episode of immobility
